Series [1] can be described thus: Antidiabetic nephropathy activity in rat CRL-2573 cells assessed as inhibition of high glucose-induced IL-6 production at 10 uM preincubated for 1 hr before glucose challenge measured after 24 hrs by ELISA. In kind it is functional, cell-based. A general note: ELISA stands for enzyme-linked immunosorbent assay.
Series [2] can be described thus: Antidiabetic nephropathy activity in rat CRL-2573 cells assessed as inhibition of high glucose-induced MCP-1 production at 10 uM preincubated for 1 hr before glucose challenge measured after 24 hrs by ELISA. The series is classed as functional, cell-based.
Series [3] is described as follows: Antidiabetic nephropathy activity in rat CRL-2573 cells assessed as inhibition of high glucose-induced ROS production at 1 to 10 uM by flow cytometry. In kind it is functional, cell-based.
Series [4] is described as follows: Antidiabetic nephropathy activity in rat CRL-2573 cells assessed as inhibition of high glucose-induced collagen 4production at 1 uM preincubated for 1 hr before glucose challenge measured after 24 hrs by ELISA. In kind it is functional, cell-based.
Series [5] is described as follows: Cytotoxicity against rat CRL-2573 cells assessed as cell viability at 10 uM after 24 hrs by trypan blue exclusion assay. To be noted: crl-2573, 24 h. The series is classed as cell-based.

The structures appear in SMILES notation. Activity calls are given as the source filed them. The calls are words filed in the database; no cut-off is given here. Peptide text beside a SMILES is read from it.

As for `CC(C)C[C@@H]1NC(=O)[C@H](CC(=O)O)NC(=O)[C@H](Cc2c[nH]c3ccccc23)NC(=O)[C@H](C)NC(=O)[C@@H]2CCCN2C(=O)CNC(=O)[C@H](Cc2ccccc2)NC(=O)[C@@H]2CCCN2C1=O` (cyclo(AWDLPFGP)), the outcome in series [1], in series [2] and in series [3] was Active.
As for `CC[C@H](C)[C@@H]1NC(=O)[C@@H]2CCCN2C(=O)[C@@H]2CCCN2C(=O)[C@H](Cc2ccc(O)cc2)NC(=O)[C@H](CO)NC(=O)[C@H](C)NC(=O)[C@H](Cc2ccccc2)NC(=O)[C@H](CO)NC1=O` [DUANBANHUAIN A] (cyclo(ASYPPISF)), the outcome in series [1], in series [2], in series [4] and in series [3] was Active. The Activity entry in series [5] was “Non-toxic”.
